Half-life, CC90 and CC50 data for one compound are collected here from patent publication US20190054109A1, “An antiviral composition and a method for application thereof” (ALLA CHEM, LLC, priority 2017, published 2019).

By half-life is commonly meant how long it takes for the measured level to halve. High values mean slow loss, low ones fast loss. For orientation: CC50 means the concentration that lowers cell viability or growth by half. The low end stands for greater toxicity to the cells, the high end for lower toxicity to the cells.

The nature of data set [1]: in vitro. Particulars: human, plasma. The method, then:
Evaluation of stability in biological matrix for compositions comprising the prodrug of formula 1.1. Initial compositions comprising the prodrug of formula 1.1 (the tested compounds) were prepared with a concentration of 10 mM in DMSO. From said compositions, 100-fold working solutions were prepared with a concentration of 100 μM in a mixture of acetonitrile: water with a volumetric ratio of 1:1.
The incubation was performed in a Vortemp56 shaking incubator at 37° C. with stirring at a rate of 300 rev/min. […] The samples were then centrifuged, and the supernatant (150 μl) was sampled for analysis […]. The incubation was performed in two replicates, with each sample measured twice.
Samples were analyzed using an HPLC-MS/MS technique developed for each tested prodrug, wherein the chromatographic system 1290 Infinity II (Agilent Technologies) was combined with the tandem mass spectrometer QTRAP5500 (AB Sciex). […] Scanning in a total ion current mode (MS1) allowed us to identify a molecular ion for each compound, and basic product ions were recorded in MS2 mode. […] In quantitative chromatogram processing, the most intensive MRM transition was used for the analyte and the internal standard. […]

A short description of data set [2]: Cytotoxicity in Huh7 cells (ATPLite kit). Type of data set: cell-based. Particulars: human. As to the method:
The cytotoxicity of tested compositions comprising the prodrug was evaluated concurrently in the same cell line Huh7 using an ATPLite kit (Perkin-Elmer, Boston, USA) in accordance with the manufacturer's instruction. The cell suspension in complete culture medium (DMEM 1×, Cellgro; cat. #10-013-CV) was transferred into 96-well plates with black walls and transparent bottoms (50 μl/well) with a final density of 7500 cells per well. Eighteen hours after planting the cells, serial compound dilutions (50 μl/well) were added. The plate with cells was incubated for 4 days at 37° C. in a humidified 5% CO2 atmosphere. The cells were then twice washed with PBS (200 μl/well) and lysed by adding a lytic buffer (50 μl/well); all reagents were taken from the ATPLite kit. Following a 5-minute stirring on a shaker, a substrate was added (50 μl/well). After an additional 5-minute incubation, the plate was kept for 10 minutes in the dark, and luminescence in the wells was measured using the multifunctional reader Victor^3 V 1420 (Perkin Elmer). The values of CC50 for tested compounds were measured from a cytotoxicity curve plotted using the GraphPad Prizm software.
Background: Cellular ATP, detected with luciferase, serves as a proxy for viable cell number.

Where only a bound is given, the exact number is not on record here.

`C[C@H](N[P@](=O)(OC[C@H]1O[C@@H](n2ccc(=O)[nH]c2=O)[C@](C)(F)[C@@H]1O)Oc1ccccc1)C(=O)OC1CCC1` [Prodrug 1.1, cyclobutyl (S)-2-{(S)-[(2R,3R,4R,5R)-5-(3,4-dihydro-2,4-dioxo-2H-pyrimidin-1-yl)-3-hydroxy-4-methyl-4-fluoro-tetrahydro-furan-2-ylmethoxy]-phenoxy-phosphorylamino}-propanoate]: the half-life at 1 μM in data set [1] is > 24 h. Moreover, the CC90 at 4 days in data set [2] (Huh7, 10% FBS) is > 100 µM. Also, the 50% cytotoxic concentration (CC50) at 4 days in data set [2] (Huh7, ATPLite, 4 days) was > 100 µM.
